Laboratory results taken from patent US6489440B1, “Cyclic compounds” (Basilea Pharmaceutica AG, priority 1998, dated 2002).
Numbered stars: 1 amine (or outer) side, 2 acyl side, 3 side chain; on linkers, the order of the positions; unused ones are H or OH. Bridge positions count the residues as written; N and C are the ends. Square brackets hold non-standard residues; d marks the D form. Peptide text beside a SMILES is read from it. * marks the point of attachment. ξ: configuration not given here. pTerphenylCO(4''-OnC5H11) = CCCCCOc1ccc(-c2ccc(-c3ccc(C(=O)*)cc3)cc2)cc1; Orn(4R-OH,5R-OH) = O=C([C@H](C[C@@H](O)[C@@H](O)N[*:3])N[*:1])[*:2]; X8 = O=C(C[C@@H](CCc1ccc(-c2ccc(OCCCc3ccccc3)cc2)cc1)N[*:2])[*:1]; hTyr(3S-OH,4S-OH) = N[C@H](C(=O)O)[C@H](O)[C@@H](O)c1ccc(O)cc1; X5 = CC(C)CCCOc1ccc(-c2ccc(CC[C@H](CC(=O)[*:1])N[*:2])cc2)cc1; X3 = CCCCCCCOc1ccc(-c2ccc(CC[C@H](CC(=O)[*:1])N[*:2])cc2)cc1; X13 = CCCCCOc1ccc(-c2ccc(CC[C@H](CC(=O)[*:1])N[*:2])cc2)cc1; ξTyr(3-NO2) = NC(Cc1ccc(O)c([N+](=O)[O-])c1)C(=O)O; Pro(3S-OH,4S-Me) = C[C@H]1CN[C@H](C(=O)O)[C@H]1O; X4 = CC(=O)Nc1cc(CC(N[*:1])C(=O)[*:2])ccc1O; X9 = CCCCCCCCCCCCC[C@H](CC(=O)[*:1])O[*:2]; X2 = NC(=O)CC(O)C(N[*:1])C(=O)[*:2]; ξDopa = NC(Cc1ccc(O)c(O)c1)C(=O)O; Hyp = O=C(O)[C@@H]1C[C@@H](O)CN1; X1 = O=C(C1C(O)CCN1[*:1])[*:2]; ξY = NC(Cc1ccc(O)cc1)C(=O)O; ξHyp = O=C(O)C1CC(O)CN1; ξOrn = NCCCC(N)C(=O)O; ξT = CC(O)C(N)C(=O)O; ξV = CC(C)C(N)C(=O)O; ξA = CC(N)C(=O)O

Key:
Candida albicans = assay: In vivo antifungal efficacy, systemic candidiasis in mice; design: species or system Crj: CD-1 (ICR) mice; conditions: i.v., b.i.d×1 day followed by q.d.×2 days; from survival on day 14
Method: Mice of a conventional immunocompetent mouse strain, Crj: CD-1 (ICR) were used for experimental infection models of systemic candidiasis. 4 weeks old Crj: CD-1 (ICR) mice were used for systemic candidiasis by injecting Candida albicans 5×10^6 conidia/mouse via the tail vein. Treatments were given twice (0, 4 h after infection) on the first day and once daily on following 2 days for systemic candidiasis (b.i.d×1 day followed by q.d.×2 days), intravenously (i.v.). 50% of effective dose (ED50) values was calculated from the survival number at each dose on day 14.

[1] = test system: Aspegillus fumigatus CF1003; assay: In vitro antifungal activity, broth micro-dilution; type: cell-based; conditions: YNB with 0.2% agarose, 1-2 days at 35° C.
Method: (§1) The in vitro antifungal activities of the representative Aerothricins of the present study were evaluated by determining the 50% inhibitory concentration (IC50), which was calculated as the lowest concentration of an antifungal to inhibit the growth of fungus to […] turbidity compared with the drug-free control growth spectrophotometrically.
(§2) The IC50 values were determined by the broth micro-dilution procedure based on NCCLS Approved Standard with the following minor modifications (National Committee for Clinical Laboratory Standards. (1997) Reference method for broth dilution antifungal susceptibility testing for yeasts. Approved standard. Document M27-A). Yeast Nitrogen Base (YNB; Difco Lab.) supplemented with 1% glucose and 0.25% K2HPO4 was used as testing medium for yeast, the same medium solidified with 0.2% low melting point agarose (BRL) was used for filamentous fungi. Inoculum size was 1-3×10^4 cells/ml, and incubation was performed for 1-2 days at 35° C.

Fusarium solani CF1088 = assay: In vitro antifungal activity, broth micro-dilution; type: cell-based; conditions: YNB with 0.2% agarose, 1-2 days at 35° C.
Method: as §1, §2

Candida albicans CY1002 = assay: In vitro antifungal activity, broth micro-dilution; type: cell-based; conditions: YNB medium, 1-2 days at 35° C.
Method: as §1, §2

mouse hepatocytes = assay: In vitro hepatotoxicity test; type: cell-based; conditions: mouse hepatocyte monolayers exposed 1 day, morphological evaluation
Excerpt: The mouse hepatocytes were isolated by a collagenase digestion and cultured in microtest plates. The hepatocyte monolayers were exposed to the test Aerothricins in the culture system for 1 day. After the culture period, the hepatocytes were observed under a microscope and evaluated morphologically. The degree of the morphological alteration (degeneration) of the hepatocytes by the test Aerothricins were compared with WF 11243 and LY303366.

Solubility = conditions: solvents in which soluble

| SMILES | In vivo antifungal activity against systemic candidiasis in mice, ED50 on day 14 (Candida albicans) [mg/kg] | In vitro Antifungal activity, IC50 [1] [µg/mL] | In vitro Antifungal activity, IC50 (Fusarium solani CF1088) [µg/mL] | In vitro Antifungal activity, IC50 (Candida albicans CY1002) [µg/mL] | further results |
| --- | --- | --- | --- | --- | --- |
| CCCCCOc1ccc(-c2ccc(CC[C@@H]3CC(=O)NC(C(C)O)C(=O)NC(C)C(=O)NC(Cc4ccc(O)cc4)C(=O)NC(C(C)C)C(=O)N4CC(O)CC4C(=O)NC(C(C)O)C(=O)NC(C(C)O)C(=O)N4CCC(O)C4C(=O)NC(C(O)CC(N)=O)C(=O)NCC(=O)NC(C(C)O)C(=O)NC(CCCN)C(=O)N3)cc2)cc1 (stereo partly shown) [Aerothricin 41] ([ξT][ξA][ξY][ξV][ξHyp][ξT][ξT][X1][X2]G[ξT][ξOrn]; linker N-C via X13) | 0.3 |  |  |  |  |
| CCCCCCCOc1ccc(-c2ccc(CC[C@@H]3CC(=O)NC(C(C)O)C(=O)NC(C)C(=O)NC(Cc4ccc(O)c([N+](=O)[O-])c4)C(=O)NC(C(C)C)C(=O)N4CC(O)CC4C(=O)NC(C(C)O)C(=O)NC(C(C)O)C(=O)N4CCC(O)C4C(=O)NC(C(O)CC(N)=O)C(=O)NCC(=O)NC(C(C)O)C(=O)NC(CCCN)C(=O)N3)cc2)cc1 (stereo partly shown) [Aerothricin 55] ([ξT][ξA][ξTyr(3-NO2)][ξV][ξHyp][ξT][ξT][X1][X2]G[ξT][ξOrn]; linker N-C via X3) | <0.3 | 0.04 | 0.39 | 0.04 |  |
| CCCCCCCOc1ccc(-c2ccc(CC[C@@H]3CC(=O)NC(C(C)O)C(=O)NC(C)C(=O)NC(Cc4ccc(O)cc4)C(=O)NC(C(C)C)C(=O)N4CC(O)CC4C(=O)NC(C(C)O)C(=O)NC(C(C)O)C(=O)N4CCC(O)C4C(=O)NC(C(O)CC(N)=O)C(=O)NCC(=O)NC(C(C)O)C(=O)NC(CCCN)C(=O)N3)cc2)cc1 (stereo partly shown) [Aerothricin 43] ([ξT][ξA][ξY][ξV][ξHyp][ξT][ξT][X1][X2]G[ξT][ξOrn]; linker N-C via X3) |  | 0.04 | 0.70 | 0.05 |  |
| CCCCCCCOc1ccc(-c2ccc(CC[C@@H]3CC(=O)NC(C(C)O)C(=O)NC(C)C(=O)NC(Cc4ccc(O)c(NC(C)=O)c4)C(=O)NC(C(C)C)C(=O)N4CC(O)CC4C(=O)NC(C(C)O)C(=O)NC(C(C)O)C(=O)N4CCC(O)C4C(=O)NC(C(O)CC(N)=O)C(=O)NCC(=O)NC(C(C)O)C(=O)NC(CCCN)C(=O)N3)cc2)cc1 (stereo partly shown) [Aerothricin 57] ([ξT][ξA][X4][ξV][ξHyp][ξT][ξT][X1][X2]G[ξT][ξOrn]; linker N-C via X3) |  | 0.05 | 1.30 | 0.14 |  |
| CC1NC(=O)C(C(C)O)NC(=O)C[C@@H](CCc2ccc(-c3ccc(OCCCc4ccccc4)cc3)cc2)NC(=O)C(CCCN)NC(=O)C(C(C)O)NC(=O)CNC(=O)C(C(O)CC(N)=O)NC(=O)C2C(O)CCN2C(=O)C(C(C)O)NC(=O)C(C(C)O)NC(=O)C2CC(O)CN2C(=O)C(C(C)C)NC(=O)C(Cc2ccc(O)cc2)NC1=O (stereo partly shown) [Aerothricin 46] ([ξT][ξA][ξY][ξV][ξHyp][ξT][ξT][X1][X2]G[ξT][ξOrn]; linker N-C via X8) | 0.4 |  |  |  |  |
| CC(C)CCCOc1ccc(-c2ccc(CC[C@@H]3CC(=O)NC(C(C)O)C(=O)NC(C)C(=O)NC(Cc4ccc(O)cc4)C(=O)NC(C(C)C)C(=O)N4CC(O)CC4C(=O)NC(C(C)O)C(=O)NC(C(C)O)C(=O)N4CCC(O)C4C(=O)NC(C(O)CC(N)=O)C(=O)NCC(=O)NC(C(C)O)C(=O)NC(CCCN)C(=O)N3)cc2)cc1 (stereo partly shown) [Aerothricin 45] ([ξT][ξA][ξY][ξV][ξHyp][ξT][ξT][X1][X2]G[ξT][ξOrn]; linker N-C via X5) | 0.3 |  |  |  | Cytotoxicity to hepatocyte (mouse hepatocytes): >100 µg/mL |
| CCCCCCCCCCCCC[C@@H]1CC(=O)NC(C(C)O)C(=O)NC(C)C(=O)NC(Cc2ccc(O)c(O)c2)C(=O)NC(C(C)C)C(=O)N2CC(O)CC2C(=O)NC(C(C)O)C(=O)NC(C(C)O)C(=O)N2CCC(O)C2C(=O)NC(C(O)CC(N)=O)C(=O)NCC(=O)NC(C(C)O)C(=O)NC(CCCN)C(=O)O1 (stereo partly shown) [Aerothricin 2] ([ξT][ξA][ξDopa][ξV][ξHyp][ξT][ξT][X1][X2]G[ξT][ξOrn]; linker N-C via X9) |  |  |  |  | Solubility (Solubility): Soluble: water, methanol, dimethylsulfoxide |
| CCCCCOc1ccc(-c2ccc(-c3ccc(C(=O)N[C@H]4C[C@@H](O)[C@@H](O)NC(=O)[C@@H]5[C@@H](O)[C@@H](C)CN5C(=O)[C@H]([C@@H](C)O)NC(=O)[C@H]([C@H](O)[C@@H](O)c5ccc(O)cc5)NC(=O)[C@@H]5C[C@@H](O)CN5C(=O)[C@H]([C@@H](C)O)NC4=O)cc3)cc2)cc1 [LY303366, reference compound] ({pTerphenylCO(4''-OnC5H11)}-[Orn(4R-OH,5R-OH)]T[Hyp][hTyr(3S-OH,4S-OH)]T[Pro(3S-OH,4S-Me)]; lactam 1-C) |  |  |  |  | Cytotoxicity to hepatocyte (mouse hepatocytes): 10 µg/mL |
